# Read-outs that look alike come from different tables or passages of the source.
# Assay: Pharmacokinetics of ERL and GEF in Wistar rats after four weeks consumption of water or flavoured water (plasma, UPLC-MS/MS, non-compartmental analysis)
# Format: in vivo
# Details: for AUC(0-t): read-out: AUC0-48; for half-life: read-out: t½ (converted)
# Description: Fifty healthy male Wistar rats weighing 250 ± 30 g were obtained from the animal house, College of Pharmacy, King Saud University, Riyadh, Saudi Arabia. Rats were randomly divided into ten cages (n = 5). All individualized ventilated cages (IVC) type IV used in this study were of 20″L × 11″W × 9″ in dimension capable of hosting 4–5 rats. Cages density, bedding, and sanitation frequency was similar in all cages. Cages were housed at room temperature (25 °C) and at an average relative humidity of 50%. Daily observation of all rats was required to ensure that all animals maintained good health. All animal experiments strictly followed the guidelines of the Ethical Committee for Performing Studies on Animals, King Saud University, Riyadh, Saudi Arabia, protocol number KSU-SE-19-13.
# Four types of FW, (Aquafina®, a product of Pepsi-Cola®, Saudi Industrial Projects Company, Jeddah, Saudi Arabia) with different flavours, specifically berry (group II), peach (group III), lime (group IV), and pineapple FW (group V) were used. Other components found in FW used in this study include water, preservatives (sodium phosphate, potassium sorbet, sodium benzoate), acidifiers (citric acid, maleic acid), sweeteners (aspartame, potassium acesulfame, allose), acidity regulator (sodium citrate), and antioxidant agent (calcium disodium EDTA). […] The parallel design was used in this study to avoid animals’ physiological changes that could occur in the cross-over design, possibly affecting PK profiles of drug substances. All animals involved in the study were deprived from food, but not water/FW, for at least 12 h before drug administration. […] Drugs were administered to the rats between 7:00 am and 8:00 am. Rats were separately weighed from day one of water/FW consumption prior to drug administration for accurate dose calculation (Fig. S1). Blood samples (0.3 mL) were collected from each rat immediately prior to dosing (0 time) and at predetermined time points (0.5, 1, 2, 3, 5, 24, and 48 h) post drug administration. Blood samples were withdrawn and processed as described previously ([Maher et al., 2017]; [Maher, Alzoman & Shehata, 2016]; [Maher, Alzoman & Shehata, 2018]). Specifically, blood samples were withdrawn from the retro-orbital sinus into a series of heparinized tubes. Plasma was separated from collected blood samples by centrifugation at 4,500 rpm for 30 min where the centrifuge was maintained at 4 °C, and then stored at −20 °C until the day of analysis. […] A mixture of acetonitrile: water (80: 20, v/v), with 0.1% formic acid was used as a mobile phase at a flow rate of 0.2 mL/min ([Maher, Alzoman & Shehata, 2016]).
# Cmax and tmax were obtained from the corresponding plasma concentration–time curve (Figs. 1A and 1B). […] The area under the plasma concentration–time curve from time 0 to the last sampling time t, 48 h (AUC0–t) was calculated using the trapezoidal rule. […] AUC0–∞ was also derived by summing up AUC0–t andthe area obtained by extrapolation from time t to ∞. The latter area was calculated from the division of the last measured concentration (Clast) by λz.
# Results were presented as mean ± SD. PK parameters of all treated groups following the consumption of FW were compared with control (rats having free access to water), using one-way ANOVA and Bonferroni’s multiple comparisons test. Statistical significance was obtained with p-values ≤ 0.05.
# [1] = male, Wistar, rat, plasma, oral, 20 mg/kg, PKSolver sheet, dose 20 mg/kg, +Berry, read-out: Conc
# [2] = male, Wistar, rat, plasma, oral, 20 mg/kg, PKSolver sheet, dose 20 mg/kg, +Lime, read-out: Conc
# [3] = male, Wistar, rat, plasma, oral, 20 mg/kg, PKSolver sheet, dose 20 mg/kg, +Peach, read-out: Conc
# [4] = male, Wistar, rat, plasma, oral, 20 mg/kg, PKSolver sheet, dose 20 mg/kg, +Pineapple, read-out: Conc
# [5] = male, Wistar, rat, plasma, oral, 20 mg/kg, PKSolver sheet, dose 20 mg/kg, drug alone (water), read-out: Conc
# [6] = male, Wistar, rat, plasma, po, 20 mg/kg, rats, 20 mg/kg oral, +Berry FW, average, read-out: Conc*10 (ng/mL plasma)
# [7] = male, Wistar, rat, plasma, po, 20 mg/kg, rats, 20 mg/kg oral, +Lime FW, average, read-out: Conc*10 (ng/mL plasma)
# [8] = male, Wistar, rat, plasma, po, 20 mg/kg, rats, 20 mg/kg oral, +Peach FW, average, read-out: Conc*10 (ng/mL plasma)
# [9] = male, Wistar, rat, plasma, po, 20 mg/kg, rats, 20 mg/kg oral, +Pineapple FW, average, read-out: Conc*10 (ng/mL plasma)
# [10] = male, Wistar, rat, plasma, po, 20 mg/kg, rats, 20 mg/kg oral, drug alone (water), average, read-out: Conc*10 (ng/mL plasma)
# [11] = male, Wistar, rat, plasma, po, 20 mg/kg, rats, 20 mg/kg oral, four weeks berry FW, n = 5, mean (SD)
# [12] = male, Wistar, rat, plasma, po, 20 mg/kg, rats, 20 mg/kg oral, four weeks peach FW, n = 5, mean (SD)
# [13] = male, Wistar, rat, plasma, po, 20 mg/kg, rats, 20 mg/kg oral, four weeks pineapple FW, n = 5, mean (SD)
# [14] = male, Wistar, rat, plasma, po, 20 mg/kg, rats, 20 mg/kg oral, water (control), n = 5, mean (SD)
# [15] = male, Wistar, rat, plasma, po, 20 mg/kg, raw data sheet, from average profile, +Berry FW
# [16] = male, Wistar, rat, plasma, po, 20 mg/kg, raw data sheet, from average profile, +Lime FW
# [17] = male, Wistar, rat, plasma, po, 20 mg/kg, raw data sheet, from average profile, +Peach FW
# [18] = male, Wistar, rat, plasma, po, 20 mg/kg, raw data sheet, from average profile, +Pineapple FW
# [19] = male, Wistar, rat, plasma, po, 20 mg/kg, raw data sheet, from average profile, drug alone (water)
# [20] = rats, lime FW relative to control (water)
# [21] = rats, pineapple FW relative to control (water)
compound,measurement,setting,value
"COc1cc2ncnc(Nc3ccc(F)c(Cl)c3)c2cc1OCCCN1CCOCC1 [GEF, Gefitinib]",concentration at 0 h,[1],39.1 ng/mL
same,concentration at 0.5 h,[1],99.7 ng/mL
same,concentration at 1 h,[1],152 ng/mL
same,concentration at 2 h,[1],322 ng/mL
same,concentration at 3 h,[1],191 ng/mL
same,concentration at 5 h,[1],150 ng/mL
same,concentration at 24 h,[1],81.4 ng/mL
same,concentration at 48 h,[1],30.2 ng/mL
same,concentration at 0 h,[2],157 ng/mL
same,concentration at 0.5 h,[2],387 ng/mL
same,concentration at 1 h,[2],483 ng/mL
same,concentration at 2 h,[2],574 ng/mL
same,concentration at 3 h,[2],643 ng/mL
same,concentration at 5 h,[2],490 ng/mL
same,concentration at 24 h,[2],216 ng/mL
same,concentration at 48 h,[2],95.2 ng/mL
same,concentration at 0 h,[3],44.5 ng/mL
same,concentration at 0.5 h,[3],135 ng/mL
same,concentration at 1 h,[3],202 ng/mL
same,concentration at 2 h,[3],365 ng/mL
same,concentration at 3 h,[3],213 ng/mL
same,concentration at 5 h,[3],161 ng/mL
same,concentration at 24 h,[3],85.3 ng/mL
same,concentration at 48 h,[3],25.2 ng/mL
same,Cmax,"male, Wistar, rat, plasma, oral, 20 mg/kg, PKSolver sheet, dose 20 mg/kg, +Pineapple",445 ng/mL
same,Tmax,"male, Wistar, rat, plasma, oral, 20 mg/kg, PKSolver sheet, dose 20 mg/kg, +Pineapple, read-out: Tmax",2 h
same,concentration at 0 h,[4],75.5 ng/mL
same,concentration at 0.5 h,[4],227 ng/mL
same,concentration at 1 h,[4],302 ng/mL
same,concentration at 2 h,[4],445 ng/mL
same,concentration at 3 h,[4],259 ng/mL
same,concentration at 5 h,[4],210 ng/mL
same,concentration at 24 h,[4],152 ng/mL
same,concentration at 48 h,[4],40.2 ng/mL
same,concentration at 0 h,[5],34.5 ng/mL
same,concentration at 0.5 h,[5],142 ng/mL
same,concentration at 1 h,[5],220 ng/mL
same,concentration at 2 h,[5],402 ng/mL
same,concentration at 3 h,[5],169 ng/mL
same,concentration at 5 h,[5],148 ng/mL
same,concentration at 24 h,[5],69.8 ng/mL
same,concentration at 48 h,[5],29.2 ng/mL
same,concentration at 0 h,[6],39.1 ng/mL
same,concentration at 0.5 h,[6],99.7 ng/mL
same,concentration at 1 h,[6],152 ng/mL
same,concentration at 2 h,[6],322 ng/mL
same,concentration at 3 h,[6],191 ng/mL
same,concentration at 5 h,[6],150 ng/mL
same,concentration at 24 h,[6],81.4 ng/mL
same,concentration at 48 h,[6],30.2 ng/mL
same,concentration at 0 h,[7],157 ng/mL
same,concentration at 0.5 h,[7],387 ng/mL
same,concentration at 1 h,[7],483 ng/mL
same,concentration at 2 h,[7],574 ng/mL
same,concentration at 3 h,[7],643 ng/mL
same,concentration at 5 h,[7],490 ng/mL
same,concentration at 24 h,[7],216 ng/mL
same,concentration at 48 h,[7],95.2 ng/mL
same,concentration at 0 h,[8],44.5 ng/mL
same,concentration at 0.5 h,[8],135 ng/mL
same,concentration at 1 h,[8],202 ng/mL
same,concentration at 2 h,[8],365 ng/mL
same,concentration at 3 h,[8],213 ng/mL
same,concentration at 5 h,[8],161 ng/mL
same,concentration at 24 h,[8],85.3 ng/mL
same,concentration at 48 h,[8],25.2 ng/mL
same,concentration at 0.5 h,[9],227 ng/mL
same,concentration at 1 h,[9],302 ng/mL
same,concentration at 2 h,[9],445 ng/mL
same,concentration at 3 h,[9],259 ng/mL
same,concentration at 5 h,[9],210 ng/mL
same,concentration at 24 h,[9],152 ng/mL
same,concentration at 48 h,[9],40.2 ng/mL
same,concentration at 0 h,[10],34.5 ng/mL
same,concentration at 0.5 h,[10],142 ng/mL
same,concentration at 1 h,[10],220 ng/mL
same,concentration at 2 h,[10],402 ng/mL
same,concentration at 3 h,[10],169 ng/mL
same,concentration at 5 h,[10],148 ng/mL
same,concentration at 24 h,[10],69.8 ng/mL
same,concentration at 48 h,[10],29.2 ng/mL
same,AUC(0-inf),[11],5230 ng·h/mL
same,CL/F,[11],74.7 mL/min/kg
same,AUC(0-t),[11],4460 ng·h/mL
same,Tmax,"male, Wistar, rat, plasma, po, 20 mg/kg, rats, 20 mg/kg oral, four weeks berry FW, n = 5, mean (SD), read-out: tmax",2.33 h
same,half-life,[11],17.7 h
same,half-life,"male, Wistar, rat, plasma, po, 20 mg/kg, rats, 20 mg/kg oral, four weeks lime FW, n = 5, mean (SD)",16.9 h
same,AUC(0-inf),[12],5300 ng·h/mL
same,CL/F,[12],70.3 mL/min/kg
same,Cmax,[12],365 ng/mL
same,AUC(0-t),[12],4740 ng·h/mL
same,Tmax,"male, Wistar, rat, plasma, po, 20 mg/kg, rats, 20 mg/kg oral, four weeks peach FW, n = 5, mean (SD), read-out: tmax",2 h
same,half-life,[12],15.4 h
same,Cmax,[13],445 ng/mL
same,Tmax,"male, Wistar, rat, plasma, po, 20 mg/kg, rats, 20 mg/kg oral, four weeks pineapple FW, n = 5, mean (SD), read-out: tmax",1.71 h
same,half-life,[13],17.8 h
same,AUC(0-inf),[14],5060 ng·h/mL
same,CL/F,[14],77.3 mL/min/kg
same,Cmax,[14],406 ng/mL
same,AUC(0-t),[14],4310 ng·h/mL
same,Tmax,"male, Wistar, rat, plasma, po, 20 mg/kg, rats, 20 mg/kg oral, water (control), n = 5, mean (SD), read-out: tmax",2 h
same,half-life,[14],17.9 h
same,AUC,[15],5230 ng·h/mL
same,Cmax,[15],322 ng/mL
same,Tmax,"male, Wistar, rat, plasma, po, 20 mg/kg, raw data sheet, from average profile, +Berry FW, read-out: tmax",2 h
same,half-life,[15],17.7 h
same,AUC,[16],15400 ng·h/mL
same,Cmax,[16],643 ng/mL
same,half-life,[16],16.9 h
same,AUC,[17],5300 ng·h/mL
same,Cmax,[17],365 ng/mL
same,Tmax,"male, Wistar, rat, plasma, po, 20 mg/kg, raw data sheet, from average profile, +Peach FW, read-out: tmax",2 h
same,half-life,[17],15.4 h
same,AUC,[18],8170 ng·h/mL
same,Cmax,[18],445 ng/mL
same,Tmax,"male, Wistar, rat, plasma, po, 20 mg/kg, raw data sheet, from average profile, +Pineapple FW, read-out: tmax",2 h
same,half-life,[18],17.8 h
same,AUC,[19],5060 ng·h/mL
same,Cmax,[19],402 ng/mL
same,Tmax,"male, Wistar, rat, plasma, po, 20 mg/kg, raw data sheet, from average profile, drug alone (water), read-out: tmax",2 h
same,half-life,[19],17.9 h
same,change in t1/2,"rats, all tested FW relative to control (water)",None of the tested FW caused a significant change
same,effect on exposure (AUC0–48),"rats, berry FW relative to control (water)",no effect was found
same,decrease in apparent oral clearance (CL/F),[20],67%
same,increase in AUC0–48,[20],203%
same,increase in AUC0–∞,[20],203%
same,increase in Cmax,[20],58%
same,increase in tmax,[20],~50%
same,decrease in apparent oral clearance (CL/F),[21],~40%
same,increase in AUC0–48,[21],~65%
same,increase in AUC0–∞,[21],~61%
same,Tmax,"raw data sheet, from average profile, +Lime FW",3 h
same,% change FOR C MAX,"raw data sheet, +Berry FW vs drug alone",-19% FOR C MAX
same,% change FOR C MAX,"raw data sheet, +Lime FW vs drug alone",60% FOR C MAX
same,% change FOR C MAX,"raw data sheet, +Peach FW vs drug alone",-9% FOR C MAX
same,% change FOR C MAX,"raw data sheet, +Pineapple FW vs drug alone",11% FOR C MAX
